From patent US6423854B1, “Aminophenol derivatives and their use in cosmetics” (L'Oreal, priority 1997, dated 2002)

System: co-culture of keratinocytes and melanocytes
Test: Inhibition of melanogenesis (depigmenting activity) in a co-culture of keratinocytes and melanocytes
Format: cell-based
Settings: for Class (maximum depigmenting activity): inhibition of melanogenesis relative to control; for IC50: co-culture of keratinocytes and melanocytes, read-out: IC50 (concentration for which a 50% inhibition of melanogenesis is observed)
Experimental: This test corresponds to the one described in patent FR 2,734,825 filed by the Applicant, as well as in the article by R. Schmidt, P. Krien and M. Régnier, Anal. Biochem., 235(2), 113-18, (1996). This test is thus carried out on a co-culture of keratinocytes and melanocytes.
For each test compound, the IC50 value, which corresponds to the micromolar (μM) concentration for which a 50% inhibition of melanogenesis is observed, is determined.
Moreover, each of these compounds is classed as regards their maximum depigmenting activity:
Class 1: 10 to 30% inhibition of melanogenesis relative to the control (same experiment without test compound);
Class 2: 30 to 60% inhibition of melanogenesis relative to the control (same experiment without test compound);
Class 3: 60 to 100% inhibition of melanogenesis relative to the control (same experiment without test compound).

IC50	SMILES	Class (maximum depigmenting activity) (1 μM)	Class (maximum depigmenting activity) (200 μM)	Class (maximum depigmenting activity) (500 μM)
1 µM	CCOC(=O)Nc1ccc(O)cc1 [Compound of Example 1, N-Ethyloxycarbonyl-4-aminophenol]	3 to 1 μM (Class 3: 60 to 100% inhibition of melanogenesis relative to the control)	–	–
50 µM	CCOC(=O)Nc1ccc(OC(=O)OCC)cc1 [Compound of Example 2, N-Ethyloxycarbonyl-O-ethyloxycarbonyl-4-aminophenol]	–	3 to 200	–
500 µM	O=c1cc(CO)occ1O [Kojic acid, reference compound]	–	–	2 to 500

SMILES	IC50	Class (maximum depigmenting activity) (1 μM)	Class (maximum depigmenting activity) (200 μM)	Class (maximum depigmenting activity) (500 μM)
CC(C)CCC[C@@H](C)[C@H]1CC[C@H]2[C@@H]3CC=C4C[C@@H](OC(=O)Nc5ccc(O)cc5)CC[C@]4(C)[C@H]3CC[C@]12C [Compound of Example 3, N-Cholesteryloxycarbonyl-4-aminophenol]	10 µM	–	3 to 200	–
